pIC50: −log10 of the molar value.
Molecular target: T1, Axl (Homo sapiens, UniProt P30530)
T1 sequence (P30530 26-894): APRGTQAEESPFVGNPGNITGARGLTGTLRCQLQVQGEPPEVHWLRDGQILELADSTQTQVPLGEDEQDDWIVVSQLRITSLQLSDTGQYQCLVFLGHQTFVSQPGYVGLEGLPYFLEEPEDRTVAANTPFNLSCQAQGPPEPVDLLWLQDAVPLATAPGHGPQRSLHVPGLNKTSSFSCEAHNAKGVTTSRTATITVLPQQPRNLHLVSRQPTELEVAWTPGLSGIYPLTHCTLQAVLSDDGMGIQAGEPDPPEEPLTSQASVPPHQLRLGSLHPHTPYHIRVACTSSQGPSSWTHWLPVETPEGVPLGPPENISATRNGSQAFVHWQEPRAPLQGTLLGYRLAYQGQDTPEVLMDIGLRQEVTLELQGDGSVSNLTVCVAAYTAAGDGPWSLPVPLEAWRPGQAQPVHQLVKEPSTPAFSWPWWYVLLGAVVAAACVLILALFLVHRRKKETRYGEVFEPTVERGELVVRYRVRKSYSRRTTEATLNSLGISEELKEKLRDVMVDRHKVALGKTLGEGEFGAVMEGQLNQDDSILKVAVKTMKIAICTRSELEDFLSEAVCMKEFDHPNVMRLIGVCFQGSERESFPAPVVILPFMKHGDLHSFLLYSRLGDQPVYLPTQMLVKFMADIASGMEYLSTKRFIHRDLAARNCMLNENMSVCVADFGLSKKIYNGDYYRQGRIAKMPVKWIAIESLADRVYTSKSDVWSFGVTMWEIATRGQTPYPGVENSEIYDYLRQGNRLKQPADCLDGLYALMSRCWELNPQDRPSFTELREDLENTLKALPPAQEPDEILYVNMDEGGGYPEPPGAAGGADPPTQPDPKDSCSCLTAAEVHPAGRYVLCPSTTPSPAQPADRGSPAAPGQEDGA
Assay: Cellular Axl inhibition ELISA (p-Axl, Gas6-induced) using H1299 cells
Assay type: cell-based
Design: especially H1299 cell endogenously expresses Axl; endogenous in cells; host or cells: H1299
Details: Elisa, comparison of compounds of present invention (**) vs compounds of WO2016/166250 (*), read-out: Cellular activity Axl (H1299) (IC50)
Protocol: Axl is expressed in several of malignant cancer cells; especially H1299 cell endogenously expresses Axl; and an increased phosphorylation of Axl (p-Axl) can be observed, when induced by the Axl ligand, Ga6.
The H1299 cells should be 40-80% confluent in the cell culture flask. Then cells are washed with DPBS and trypsinized. After centrifugation, the cell pellet is re-suspended with pre-warmed culture medium (RPMI1640, 10% FBS) and cells are separated by pipetting 6 times up and down with a 10 ml serological pipette. The cell suspension was diluted to a final concentration of 1.25×10^5 cells/ml. Then 80 μl/well cell suspension is added to the plate. Cell-plates are incubated at 37° C./5% CO2 overnight. Compounds were dissolved by DMSO to 10 mM, and kept in nitrogen cabinet. Prepare the compounds stock plate, the reference compounds concentration starts at 0.50 mM (5 μl+95 μl DMSO), and the tested compounds start at 1.5 mM (6 μl+34 μl DMSO); Then make a 3-fold dilution series (10 doses) compounds. Then dilute compounds by the medium in the mid plate (2 μl compounds+198 μl medium). Transfer 20 μl diluted compounds from mid plate to the cell coated plate. Cell-plates are incubated at 37° C./5% CO2 for 24 h. Add 25 μl of Human Gas6 (1000 ng/ml) to 96-well plate; the final concentration of Human Gas6 is 200 ng/ml. Incubate the plates at 37° C./5% CO2 for 1 h. Remove medium and wash cells once with 300 ul/well ice-cold 1×PBS. Then remove PBS and add 100 μl/well ice-cold 1× Cell Lysis Buffer to 96-well plate. The plate is shaken for 40 min at 4° C. Then plates can be stored at −20° C. After the micro-wells strips have reached room temperature, break off the required number of micro-wells. Place the micro-wells in the strip holder. Unused micro-wells must be resealed and stored at 4° C. immediately. Add 60 μl of cell lysate to the appropriate well. Seal with tape and press firmly onto top of micro-wells. Incubate the plate at 37° C. for 2 h. Gently remove the tape and wash wells 5 times with 1× Wash Buffer, 300 μl each time for each well. Add 100 μl of reconstituted Detection Antibody (green color) to each well. Seal with tape and incubate the plate at 37° C. for 1 h. Repeat wash procedure. Add 100 μl of reconstituted HRP Linked secondary antibody to each well. Seal with tape and incubate the plate at 37° C. for 30 min. Repeat wash procedure. Add 100 μl of TMB Substrate to each well. Seal with tape and incubate the plate at 37° C. for 15 min. Add 100 μl of STOP Solution to each well. Shake gently for a few seconds. Read absorbance at 450 nm within 30 min after adding STOP Solution. Calculations and Formulas: The following calculations and formulas are used for data analysis using XL Fit software: The curve fitting was made using the Sigmoidal Dose-Response Model (Fit model, 205).

SMILES | pIC50
COc1cc2nccc(Oc3ccc(NC(=O)c4nn(CC5COC5)cc4OCC(F)(F)F)nc3)c2cc1OC [Compound 92] | 8.41

Same assay, conditions: read-out: Cellular Axl activity by H1299 Elisa (IC50)

SMILES | pIC50
CCn1cc(OCC2CCC2)c(C(=O)Nc2ccc(Oc3ccnc4cc(OC)c(OC)cc34)cn2)n1 [Compound 8] | > 6.30
COc1cc2nccc(Oc3ccc(NC(=O)c4nn(C5CC5)cc4OCC4CNC4)nc3)c2cc1OC [Compound 144] | ≤ 6.00
CCCn1cc(OCC2COC2)c(C(=O)Nc2ccc(Oc3ccnc4cc(OC)c(OC)cc34)cn2)n1 [Compound 106] | > 6.30
COc1cc2nccc(Oc3ccc(NC(=O)c4nn(CCN(C)C)cc4OCC(F)(F)F)nc3)c2cc1OC [Compound 9] | > 6.30
CCn1cc(OC(C)C)c(C(=O)Nc2ccc(Oc3ccnc4cc(OC)c(OC)cc34)cn2)n1 [Compound 6] | > 6.30
COc1cc2nccc(Oc3ccc(NC(=O)c4nn(CC(C)C)cc4OCC(F)(F)F)nn3)c2cc1OC [Compound 124] | > 6.30
COc1cc2nccc(Oc3ccc(NC(=O)c4nn(C5CC5)cc4OCC(F)F)nn3)c2cc1OC [Compound 162] | > 6.30
COc1cc2nccc(Oc3ccc(NC(=O)c4nn(CCN)cc4OCC(F)(F)F)cn3)c2cc1OC [Compound 135] | ≤ 6.00
CNCCn1cc(OCC(F)(F)F)c(C(=O)Nc2ccc(Oc3ccnc4cc(OC)c(OC)cc34)c(C)c2)n1 [Compound 156] | ≤ 6.00
COc1cc2nccc(Oc3ccc(NC(=O)c4nn(CCOC5CC5)cc4OCC(F)(F)F)cc3C)c2cc1OC [Compound 117] | 6.00 to 6.30
CNCCn1cc(OCC(F)(F)F)c(C(=O)Nc2ccc(Oc3ccnc4cc(OC)c(OC)cc34)nc2)n1 [Compound 137] | ≤ 6.00
COc1cc2nccc(Oc3ccc(NC(=O)c4nn(CCOC5CC5)cc4OCC(F)(F)F)cc3)c2cc1OC [Compound 118] | > 6.30
COc1cc2nccc(Oc3ccc(NC(=O)c4nn(C5CCNC5)cc4OCC(F)(F)F)nn3)c2cc1OC (stereo not shown) [Compound 122] | ≤ 6.00
COc1cc2nccc(Oc3ccc(NC(=O)c4nn(C5CC5)cc4OCC(F)(F)F)nn3)c2cc1OC [Compound 112] | > 6.30
CNCCOc1cn(C2CC2)nc1C(=O)Nc1ccc(Oc2ccnc3cc(OC)c(OC)cc23)nn1 [Compound 160] | ≤ 6.00
COc1cc2nccc(Oc3ccc(NC(=O)c4nn(C5CC5)cc4OCCF)nn3)c2cc1OC [Compound 113] | > 6.30
CNCCn1cc(OCC(F)(F)F)c(C(=O)Nc2ccc(Oc3ccnc4cc(OC)c(OC)cc34)nn2)n1 [Compound 127] | ≤ 6.00

SMILES | pIC50
COc1cc2nccc(Oc3ccc(NC(=O)c4nn(C5CCN(C)C5)cc4OCC(F)(F)F)cn3)c2cc1OC (stereo not shown) [Compound 133] | ≤ 6.00
COc1cc2nccc(Oc3ccc(NC(=O)c4nn(CCOC5CC5)cc4OCC(F)(F)F)nn3)c2cc1OC [Compound 120] | 6.00 to 6.30
COc1cc2nccc(Oc3ccc(NC(=O)c4nn(C5CCCC5)cc4OCC(F)(F)F)cn3)c2cc1OC [Compound 131] | > 6.30
COc1cc2nccc(Oc3ccc(NC(=O)c4nn(C5CC5)cc4OCC4CCC4)nn3)c2cc1OC [Compound 149] | > 6.30
CCCn1cc(OCCN(C)C)c(C(=O)Nc2ccc(Oc3ccnc4cc(OC)c(OC)cc34)c(F)c2)n1 [Compound 165] | > 6.30
COc1cc2nccc(Oc3ccc(NC(=O)c4nn(CCOC5CC5)cc4OCC(F)(F)F)cc3F)c2cc1OC [Compound 116] | > 6.30
COc1cc2nccc(Oc3ccc(NC(=O)c4nn(CC5COC5)cc4OCC(F)(F)F)nc3)c2cc1OC [Compound 92] | > 6.30
COc1cc2nccc(Oc3ccc(NC(=O)c4nn(C5CC5)cc4OC(C)C)nn3)c2cc1OC [Compound 147] | > 6.30
CNCCn1cc(OCC(F)(F)F)c(C(=O)Nc2ccc(Oc3ccnc4cc(OC)c(OC)cc34)c(F)c2)n1 [Compound 155] | > 6.30
COc1cc2nccc(Oc3ccc(NC(=O)c4nn(C5CCN(C)C5)cc4OCC(F)(F)F)cc3)c2cc1OC (stereo not shown) [Compound 100] | 6.00 to 6.30
CCCn1cc(OCC(F)(F)F)c(C(=O)Nc2ccc(Oc3ccnc4cc(OC)c(OC)cc34)cn2)n1 [Compound 7] | > 6.30
COc1cc2nccc(Oc3ccc(NC(=O)c4nn(C5CC5)cc4NCCC(F)(F)F)nn3)c2cc1OC [Compound 146] | > 6.30
COc1cc2nccc(Oc3ccc(NC(=O)c4nn(C5CC5)cc4NCC(F)(F)F)nc3)c2cc1OC [Compound 145] | > 6.30
CCCn1cc(OCC2CCOCC2)c(C(=O)Nc2ccc(Oc3ccnc4cc(OC)c(OC)cc34)cn2)n1 [Compound 164] | > 6.30
COc1cc2nccc(Oc3ccc(NC(=O)c4nn(C5CCNC5)cc4OCC(F)(F)F)cn3)c2cc1OC (stereo not shown) [Compound 132] | ≤ 6.00
COc1cc2nccc(Oc3ccc(NC(=O)c4nn(C5CCOC5)cc4OCC(F)(F)F)nn3)c2cc1OC (stereo not shown) [Compound 128] | > 6.30

Source: patent US12162858B2, “Quinoline derivatives as inhibitors of AXL/MER RTK and CSF1R” (QURIENT CO., LTD., priority 2018, dated 2024)
